Reference: US20150359798A1, “PIPERAZINYL DERIVATIVE REDUCES HIGH-FAT DIET-INDUCED ACCUMULATION OF FAT IN THE LIVERS, […]” (priority 2011, published 2015)

How the values were obtained:
mice fed with HFD = test: HFD-fed mice, 8 weeks, gavage: serum/liver lipids, body weight, food intake; format: in vivo; conditions: HFD mice, 8 weeks
Protocol: In the 8 week experiment, C57BL/6J male mice (21-22 g), after fasting, were fed a HFD as a model of hyperlipidemia for 8 weeks. During the 2 month experiments, mice fasted for one night before the experiment was changed from a standard diet (STD) to a HFD and then the mice were randomly divided into 5 groups, including 2 control and 3 treatment groups. Six mice were used in each group. […] Liver from the protection group supplemented with KMUP-1 HCl (1 mg/kg/day) were used to determine the HMG CoA reductase expression.
Within 2 months, the 3 day food intake average for each animal was measured. The weight gain and plasma lipid levels of each group were determined and compared to the non-treatment control group. Mouse blood was collected during the daytime by cardiac puncture followed by centrifugation at 90 g (Benchtop Centrifuge, U.S.A.) to separate the serum, and frozen at −80° C., for biochemical analysis using a Hitachi Clinical Analyzer 7070 (Hitachi High-Technologies Co. Tokyo, Japan). Agents used in the assays were Obtained from Merck & Co. (Kenilworth, N.J., U.S.A.). Triglyceride (TG), total cholesterol, HDL cholesterol and LDL cholesterol in mouse serum were measured by methods used in the clinic. To measure the hepatic TG, isolated liver were cut into small chips.

mice fed a HFD = test: HFD-fed mice, 14-week experiment: body weight, liver morphology, H&E, oil globulets; format: in vivo
Protocol: (§1) In the 14-week experiment, mice were fed a HFD from week 1 to week 14. During the 3 month experiments, KMUP-1 HCl (2.5 mg) was added to 200 ml tap water and) and drink for 14 weeks or for the last 6 weeks on mice or obese mice fed HFD, separately. 5 mice had free access to drinking water from week 1 to week 14 (protective group) or from week 8 to week 14 (treatment group). Tap water was used to normalize mineral nutrition (Scheme A).
The diameter of the white bar in the photograph was standardized at 100 μM for measuring the specific diameter of oil globulets in a whole liver slice, observed by microscope, with the aid of Powerpoint PC computer software (Microsoft®, USA) and printed out by a Hewlett-Packard® printer (USA). An increase in oil globulet diameter and cell number indicated increasing liver steatosis, i.e. steaotohepatitis. In contrast, decrease in diameter and the number of fat cells indicated the inhibition of steaotohepatitis. […] Hematoxylin-eosin (H&E) and […] staining of liver were used to assess oil globulet numbers under a microscope.
(§2) Mice liver and epididymal fat pads were cut and soaked in formalin, dehydrated through graded alcohols and embedded in paraffin. Specimens of liver tissues and epididymal fat pads fixed with formalin (4%) were embedded in paraffin for one hour at 4° C., cut into […] sections, and subjected to H&E staining before examination by light microscope. In heart tissues, the 4-μm-thick paraffin sections were cut from paraffin-embedded tissue blocks and de-paraffinized by immersion in xylene and rehydrated. The slices were then dyed with H&E. After gently rinsing with water, each slide was dehydrated through graded alcohols and finally soaked in xylene twice.
Hematoxylin-eosin (H&E) and IHC staining of liver were used to assess oil globulet numbers under a microscope. A 100 μM white bar was used to determine oil globule sizes in the liver. Oil globulets in a cell were counted from larger to smaller until size limitations were reached. Increases of oil globulet diameter and number indicated increasing liver steatosis. In contrast, a decrease in oil globulet diameters and numbers could indicate the inhibition of liver steatosis. Oil globulets were measured using a Nikon Eclipse TE200-S microscope, aided by Powerpoint computer software (Microsoft®) and printed by a HP® printer to measure the diameter and number of oil globulets on paper. Counting: of oil globules was performed from larger to smaller ones until the observation reached its limit.

epididymal fat pads = test: H&E staining, weight and cell diameter of epididymal fat pads; format: in vivo, mice
Protocol: as §1, §2

HSL = test: IHC staining of HSL in epididymal fat pads; format: in vivo, mice; conditions: protection, 2.5 mg/kg/day
Protocol: For IHC of MMP-9/TNFα, HSL/p-HSL/ATGL and eNOS/IL-10, antigen retrieval of de-paraffinated sections was performed in Dako target retrieval solution, pH 9.0, in a vegetable steamer followed by the quenching of endogenous peroxidase activity with 3.0% H2O2 in methanol. Sections were then incubated with specific primary antibodies overnight at 4° C. in a humidified chamber. The antibodies used included rabbit polyclonal anti-eNOS (1:50 dilution) (Abcam, Cambridge, UK) or rabbit monoclonal anti-cleaved caspase-3 (1:50 dilution) (Cell Signaling, USA). The sections were then examined using a DAKO REAL EnVision™ Detection System kit (DAKO, Carpinteria, Calif.) and counterstained with hematoxylin. Images were obtained through a Nikon Eclipse TE200-S microscope.

RhoA = RhoA translocation from cytosol to membranes in HepG2 cells; format: cell-based
Protocol: (§3) HepG2 cells were treated with various concentrations of drugs for 24 hours. Reactions were terminated by washing twice with cold PBS, and the cells were then harvested, Proteins in the whole-cell lysate were homogenized in an ice-cold lysis buffer and a protease inhibitor (Sigma-Aldrich, St. Louis, Mo., U.S.A.). The homogenate was centrifuged at 90, 000 g for 15 minutes at 4° C., and supernatant was recovered as the total cellular protein. Cytosolic and membrane fractions of HepG2 cells were prepared using a. CNM (Cytosol Nuclear Membrane) compartment protein extraction kit (BioChain Institute Inc., Hayward, Calif., U.S.A.) according to the manufacturer's instructions. All of the fractionated protein solutions were stored at −80° C. until analysis. To measure the expression levels of proteins by drugs, the total cell protein was extracted after incubation with treatments for 24 hours and then Western blotting analysis was performed as described previously.

PPARγ = PPARγ expression in HepG2 cells; format: cell-based
Protocol: as §3

PKA = PKA expression and immunoreactivity in HepG2 cells; format: cell-based

Cn1c(=O)c2c(ncn2CCN2CCN(c3ccccc3Cl)CC2)n(C)c1=O [KMUP-1, 7-[2-[4-(2-chlorophenyl)piperazinyl]ethyl]-1,3-dimethyl xanthine]
HDL cholesterol level (mice fed with HFD): significantly increased
HFD-induced hypercholesterolemia (mice fed with HFD): significantly improved
HDL cholesterol (mice fed with HFD; 2.5 mg/kg): 103.6 ± 4.2 mg/dL
LDL cholesterol (mice fed with HFD; 2.5 mg/kg): 14.2 ± 1.4 mg/dL
TG in serum (mice fed with HFD; 2.5 mg/kg): 74.5 ± 5.1 mg/dL
TG of liver (mice fed with HFD; 2.5 mg/kg): 28.4 ± 3.6 mg/dL
Tot. chol. (total cholesterol) (mice fed with HFD; 2.5 mg/kg): 133.0 ± 5.1 mg/dL
final BW (Body weight) (mice fed with HFD; 2.5 mg/kg): 25.7 ± 0.7 g
HDL cholesterol (mice fed with HFD; 5 mg/kg): 118.3 ± 5.7 mg/dL
LDL cholesterol (mice fed with HFD; 5 mg/kg): 14.2 ± 2.2 mg/dL
TG in serum (mice fed with HFD; 5 mg/kg): 72.7 ± 4.7 mg/dL
TG of liver (mice fed with HFD; 5 mg/kg): 26.12 ± 3.1 mg/dL
Tot. chol. (total cholesterol) (mice fed with HFD; 5 mg/kg): 125.5 ± 9.8 mg/dL
final BW (Body weight) (mice fed with HFD; 5 mg/kg): 24.3 ± 0.5 g
fat globules and Mallory's hyaline bodies (H&E staining of liver) (mice fed a HFD; oral 2.5 mg/kg, last 6 weeks/14 weeks): reduced
oil globulet number and changes of oil globulet diameter in liver (mice fed a HFD; treatment and protection groups): sharply reduced
epididymal fat pad weight (epididymal fat pads; 2.5 mg/kg/day for 14 weeks): significantly reduced
fat cell diameter (epididymal fat pads; 2.5 mg/kg/day for 14 weeks): significantly reduced
HFD-induced hypertrophy/hyperplasia of epididymal fat pads (H&E) (epididymal fat pads; protection, 2.5 mg/kg): inhibited
IHC staining of HSL in epididymal fat pads (HSL): increased
translocation of RhoA from cytosol to membranes (RhoA): concentration-dependently inhibited
increase of PPARγ (PPARγ; HepG2): 2-3 fold
expression of PPARγ (PPARγ; HepG2, 10^−9-10^−5 M): increased
FPP- or GGPP-suppressed expression of PPARγ (PPARγ; HepG2, KMUP-1 10^−9-10^−5 M with FPP or GGPP): reversed
PPARγ expression (FIG. 24C) (PPARγ; HepG2, simvastatin, KMUP-1, Y27632 10^−5M, C3 exoenzyme): increased
PKA immunoreactivity (green fluorescence) (PKA): increased
oxLDL (200 μg/mL)-induced reduction of PKA expression (PKA; 1, 10, 100 μM): reversed
PKA protein expression (PKA; 10, 20, 40 µM, in the presence of LDL (500 μg/mL)): could not significantly affect
